Test results published in patent US8350048B2, “Amide compounds as boosters of antivirals” (Janssen R&D Ireland, priority 2007, dated 2013).
Where two headings read alike, the source gives them in different places.

Experiments:
[1] = target: CYP2C9 (Homo sapiens, UniProt P11712); assay: in vitro
Source text: (§1) Assay 4: CYP450 Inhibition

[2] = In vivo boosting capacity: pharmacokinetics of darunavir in Beagle dogs; conditions: fed male Beagle dogs, booster 5 mg/kg oral 15 min before darunavir 5 mg/kg oral, average of 3 dogs
Description: Oral dosing was done by gavage. At all times, the dogs were given free and continuous access to water. Blood samples were collected from the jugular vein at 0 (=predose), 0.5, 1, 2, 4, 7, and 24 h after dose administration. The samples were centrifuged at 1900×g for 10 min at 5° C. to allow plasma separation. Separated plasma was stored in the freezer within two hours after blood sampling. At all times, blood and plasma samples were placed on melting ice and protected from light. […] Values listed are the average of 3 dogs.

[3] = system: wild-type HIV-1IIIB strain; assay: Antiviral activity, MT4 LTR-EGFP cellular assay; assay type: cell-based; parameters: key to Antiviral activity IIIB (pEC50): pEC50 = -log10(EC50); conditions: wild-type HIV-1 IIIB, MT4 LTR-EGFP cells, three days after infection
[4] = Metabolic stability of test compounds (HLM15'); assay type: in vitro ADME, human
[5] = system: MT4 CMV-EGFP cells; assay: Toxicity, mock-infected MT4 CMV-EGFP cells; assay type: cell-based, human
[6] = target: CYP2C19 (Homo sapiens, UniProt P33261); assay: CYP450 inhibition CDNA-CYP2C19-CEC; conditions: 10 μM test compound, substrate CEC 25 μM, 30 min
Sequence of CYP2C19 (P33261 whole entry): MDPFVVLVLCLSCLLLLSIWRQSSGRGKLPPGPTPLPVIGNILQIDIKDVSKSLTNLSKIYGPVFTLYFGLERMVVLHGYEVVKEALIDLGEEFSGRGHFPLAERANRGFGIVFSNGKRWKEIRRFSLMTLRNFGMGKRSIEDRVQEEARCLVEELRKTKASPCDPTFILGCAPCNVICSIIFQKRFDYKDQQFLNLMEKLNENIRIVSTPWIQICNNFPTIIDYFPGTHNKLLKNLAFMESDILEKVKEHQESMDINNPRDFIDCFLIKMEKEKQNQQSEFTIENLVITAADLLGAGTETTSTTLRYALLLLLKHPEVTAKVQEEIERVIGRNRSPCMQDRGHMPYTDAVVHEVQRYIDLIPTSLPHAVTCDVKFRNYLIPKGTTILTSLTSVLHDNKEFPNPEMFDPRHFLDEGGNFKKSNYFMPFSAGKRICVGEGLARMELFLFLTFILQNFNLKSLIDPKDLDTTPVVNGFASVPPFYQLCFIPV

[7] = target: CYP2D6 (Homo sapiens, UniProt P10635); assay: CYP450 inhibition CDNA-CYP2D6-AMMC; conditions: 10 μM test compound, substrate AMMC 3 μM, 45 min
Sequence of CYP2D6 (P10635 whole entry): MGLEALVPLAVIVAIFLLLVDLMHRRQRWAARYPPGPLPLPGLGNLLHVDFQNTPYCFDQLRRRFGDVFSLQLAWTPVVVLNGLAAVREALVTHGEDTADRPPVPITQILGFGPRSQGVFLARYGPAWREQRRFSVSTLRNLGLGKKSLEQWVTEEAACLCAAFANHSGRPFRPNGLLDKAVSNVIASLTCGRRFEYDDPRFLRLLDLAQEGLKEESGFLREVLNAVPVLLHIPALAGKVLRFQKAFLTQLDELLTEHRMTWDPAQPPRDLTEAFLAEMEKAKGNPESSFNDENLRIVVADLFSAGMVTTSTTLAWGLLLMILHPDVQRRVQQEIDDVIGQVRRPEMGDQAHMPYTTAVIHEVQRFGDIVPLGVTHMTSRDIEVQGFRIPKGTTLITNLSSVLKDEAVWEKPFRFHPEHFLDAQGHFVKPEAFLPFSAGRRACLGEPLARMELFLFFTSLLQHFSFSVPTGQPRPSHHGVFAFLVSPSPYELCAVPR

[8] = target: T1, CYP1A2 (Homo sapiens, UniProt P05177); assay: CYP450 inhibition CDNA-CYP1A2-CEC; conditions: 10 μM test compound, substrate CEC 5 μM, 15 min
T1 sequence (P05177 1-516): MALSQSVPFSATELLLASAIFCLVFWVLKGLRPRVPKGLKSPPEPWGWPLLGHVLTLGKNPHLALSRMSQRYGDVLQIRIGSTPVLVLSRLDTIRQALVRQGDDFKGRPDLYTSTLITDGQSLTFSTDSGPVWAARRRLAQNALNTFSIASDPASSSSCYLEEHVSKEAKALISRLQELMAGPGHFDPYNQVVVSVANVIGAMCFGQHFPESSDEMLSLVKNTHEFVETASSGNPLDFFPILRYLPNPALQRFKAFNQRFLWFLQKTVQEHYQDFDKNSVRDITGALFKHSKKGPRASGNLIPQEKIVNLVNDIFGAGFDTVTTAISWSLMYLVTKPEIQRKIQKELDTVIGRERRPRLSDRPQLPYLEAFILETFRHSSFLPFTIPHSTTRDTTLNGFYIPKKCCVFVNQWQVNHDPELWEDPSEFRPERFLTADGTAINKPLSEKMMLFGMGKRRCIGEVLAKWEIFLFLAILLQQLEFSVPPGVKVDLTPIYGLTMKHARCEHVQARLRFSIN

[9] = target: T2, CYP3A4 (Homo sapiens, UniProt P08684); assay: in vitro; conditions: 10 μM test compound, substrate DBF 1 μM, 10 min
T2 sequence (P08684 whole entry): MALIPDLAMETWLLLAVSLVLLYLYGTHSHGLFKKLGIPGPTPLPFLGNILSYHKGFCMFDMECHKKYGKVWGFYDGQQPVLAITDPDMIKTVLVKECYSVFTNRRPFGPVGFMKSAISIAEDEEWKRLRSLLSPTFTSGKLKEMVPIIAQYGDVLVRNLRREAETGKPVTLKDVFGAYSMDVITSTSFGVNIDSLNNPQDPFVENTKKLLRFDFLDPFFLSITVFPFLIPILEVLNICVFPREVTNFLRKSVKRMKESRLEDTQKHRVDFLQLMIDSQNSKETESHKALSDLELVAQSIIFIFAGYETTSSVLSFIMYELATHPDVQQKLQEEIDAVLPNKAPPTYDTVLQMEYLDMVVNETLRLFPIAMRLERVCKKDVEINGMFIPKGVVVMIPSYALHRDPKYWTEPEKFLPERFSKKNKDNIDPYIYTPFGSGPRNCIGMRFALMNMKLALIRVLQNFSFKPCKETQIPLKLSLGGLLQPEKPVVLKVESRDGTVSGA
Source text: as §1

[10] = target: T2, CYP3A4; assay: CYP450 inhibition CDNA-CYP3A4-BQ; conditions: 10 μM test compound, substrate BQ 60 μM, 30 min
Source text: as §1

[11] = target: T2, CYP3A4; assay: CYP450 inhibition CDNA-CYP3A4-BFC; conditions: 10 μM test compound, substrate BFC 150 μM, 30 min
Source text: as §1

[12] = human liver microsomes 1 mg/ml, 5 μM test compound, 15 min
[13] = mock-infected MT4 CMV-EGFP cells

Sequence of CYP2C9 (P11712 whole entry): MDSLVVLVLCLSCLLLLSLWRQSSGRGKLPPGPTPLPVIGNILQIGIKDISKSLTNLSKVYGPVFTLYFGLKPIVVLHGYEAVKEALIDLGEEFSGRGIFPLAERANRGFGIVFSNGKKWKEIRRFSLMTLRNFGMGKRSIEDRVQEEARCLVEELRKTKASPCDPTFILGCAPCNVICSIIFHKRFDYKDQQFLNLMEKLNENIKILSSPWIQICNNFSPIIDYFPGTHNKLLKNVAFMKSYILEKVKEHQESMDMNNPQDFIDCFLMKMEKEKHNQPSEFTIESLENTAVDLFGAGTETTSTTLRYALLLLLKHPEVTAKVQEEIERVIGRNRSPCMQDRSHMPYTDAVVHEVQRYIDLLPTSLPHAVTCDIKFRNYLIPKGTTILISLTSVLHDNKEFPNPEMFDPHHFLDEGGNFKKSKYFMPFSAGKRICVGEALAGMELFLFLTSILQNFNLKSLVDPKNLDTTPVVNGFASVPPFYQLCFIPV

| C7h of darunavir [2] [ng/mL] | SMILES | Cyp450 inhibition: CDNA-CYP2C9-MFC (% inhibition) [1] [%] | Antiviral activity IIIB (pEC50) [3] | Metabolic stability (HLM, % recovery after 15') [4, 12] [%] | Toxicity MT4 (pCC50) [5] | Cyp450 inhibition: CDNA-CYP2C19-CEC (% inhibition) [6] [%] | Cyp450 inhibition: CDNA-CYP2D6-AMMC (% inhibition) [7] [%] | Cyp450 inhibition: CDNA-CYP1A2-CEC (% inhibition) [8] [%] | Toxicity MT4 (pCC50) [5, 13] | Cyp450 inhibition: CDNA-CYP3A4-DBF (% inhibition) [9] [%] | Cyp450 inhibition: CDNA-CYP3A4-BQ (% inhibition) [10] [%] | Cyp450 inhibition: CDNA-CYP3A4-BFC (% inhibition) [11] [%] | Metabolic stability (HLM, % recovery after 15') [4] [%] |
| --- | --- | --- | --- | --- | --- | --- | --- | --- | --- | --- | --- | --- | --- |
| 134 | CC(C)CN(C[C@@H](O)[C@H](Cc1ccccc1)NC(=O)OCc1cncs1)C(=O)c1ccc2ncsc2c1 [Compound C7] | 99 | =4.02 | 65 | =4.00 |  |  |  |  |  |  |  |  |
|  | CC(C)CN(C[C@@H](O)[C@H](Cc1ccccc1)NC(=O)OCc1cncs1)C(=O)c1ccc2nc(N(C)C)oc2c1 [Compound C4] | 94 | =4.33 | 67 |  | 82 | 26 | 7 | =4.32 |  |  |  |  |
|  | CCNc1nc2ccc(C(=O)N(C[C@@H](O)[C@H](Cc3ccccc3)NC(=O)OCc3cncs3)CC(C)(C)O)cc2o1 [Compound C44] | 95 | <4.00 | 70 |  | 62 | 38 | 0 | <4.00 |  |  |  |  |
|  | CCNc1nc2ccc(C(=O)N(CC(C)C)C[C@@H](O)[C@H](Cc3ccccc3)NC(=O)OCc3cncs3)cc2o1 [Compound C27] | 94 | =4.07 | 52 |  | 79 | 70 | 10 | <4.00 | 94 | 80 | 94 |  |
|  | CC(C)CN(C[C@@H](O)[C@H](Cc1ccccc1)NC(=O)OCc1cncs1)C(=O)c1ccc2nc(NC3CCN(C)CC3)oc2c1 [Compound C25] | 12 | <4.00 | 8 |  | 7 | 67 | 0 | <4.00 | 76 | 71 | 77 |  |
|  | CC(C)CN(C[C@@H](O)[C@H](Cc1ccccc1)NC(=O)OCc1cncs1)C(=O)c1ccc2nc(-c3ccncc3)oc2c1 [Compound C48] | 99 | <4.00 |  |  | 94 | 74 | 18 | <4.00 | 98 | 85 | 97 | 91 |
